Experimental data: patent publication US20240408088A1, “PYRAZOLE DERIVATIVE, AND PREPARATION METHOD THEREFOR AND USE THEREOF IN MEDICINE” (Abbisko Therapeutics Co., Ltd., priority 2021, published 2024)
Like-named read-outs stand apart in the source and are kept apart here. Each block holds one compound with its values, some of them ahead of it.

How the values were obtained:
[1] = Liver microsomal stability experiment; assay type: in vitro ADME; settings: pH 7.4; human liver microsomes, NADPH, 37° C., 0-45 min; read-out: Human Liver Microsome Stability Half-Life T1/2
Experimental: Buffer solution A: 1.0 L of 0.1 M potassium dihydrogen phosphate buffer solution (containing 1.0 mM EDTA);
Buffer solution B: 1.0 L of 0.1 M dipotassium phosphate buffer solution (containing 1.0 mM EDTA);
Buffer solution C: Buffer solution A was added to 700 mL of buffer solution B. The addition was stopped when pH reached 7.4.
The selected compounds of the examples and reference standards were dissolved in DMSO to prepare a stock solution of 10 mM.
• 500 μM solution: 10 μL of 10 mM stock solution was added to 190 μL of ACN; • 1.5 μM dosing solution (dissolved in liver microsome solution, human liver microsomes were purchased from Xenotech): 18.75 μL of 20 mg/mL liver microsomes was added to 479.75 μL of buffer solution C, then 1.5 μL of 500 μM solution was added and mixed well with gentle shaking.
NADPH was weighted, then an appropriate amount of buffer solution C was added to prepare a 6 mM of NADPH solution.
• 1. 30 μL of 1.5 μM dosing solution was added to the wells set to different time points (0 min, 5 min, 15 min, 30 min and 45 min) on a 96-well plate. 2 replicates were made. • 2. Preparation of the 0-min sample: 135 μL of ACN (containing internal standard) was first added to the 0-min well, and 15 μL of 6 mM NADPH solution was added. • 3. A 96-well plate containing 1.5 μM of dosing solution and NADPH solution were pre-warmed in a 37° C. water bath for 5 minutes. • 4. Pre-warmed 15 μL of 6 mM NADPH solution was added to the wells set to 5 min, 15 min, 30 min and 45 min, the reaction was started and the timing was started. • 5. […] The solution was vortexed for 10 minutes, and the sample was centrifuged on a centrifuge at 5594×g for 15 minutes. • 6. 50 μL of supernatant was taken from the centrifuged sample, transferred to a 96-well sample plate that has been added with 50 μL of water, mixed, and finally sent to LC-MS/MS for analysis. The half-life was calculated based on the test results.

[2] = Pharmacokinetic assay in mice, single oral administration; assay type: in vivo; settings: male, mouse, ICR mice, 10 mg/kg, plasma
Experimental: The purpose of this trial is to study the pharmacokinetic behavior of some compounds of the present invention, and the administration method is: Single oral administration (PO) to ICR mice:
ICR mice male N=3 original source: Shanghai Sippr-Bk Lab Animal Co., Ltd.
The compounds were weighed and dissolved in 20% PG+10% Solutol HS15+70% pH 3 citrate buffer, respectively, shaken well and sonicated to prepare colorless clear solutions or suspensions. Nine mice were administered orally at a dose of 10 mg/kg after an overnight fast.
About 90 μL of blood was collected via the submandibular vein per time point, heparin sodium anticoagulant was added, the sample was placed on ice after collection, and plasma was centrifuged within 1 hour (centrifugation conditions: 8,000 rpm, 6 minutes, 2-8° C.). The blood collection time points were 0, 0.25, 0.5, 1, 2, 4, 6, 8 and 24 h. The samples were stored in a refrigerator at −20° C.
The plasma sample was 40 μL, 160 μL of ice-cold acetonitrile containing internal standard was added, vortexed for 3 minutes, and centrifuged at 11,000 rpm for 5 minutes. 100 μL of the supernatant was taken and added to 100 μL of water, 5 μL of the sample was taken and injected into LC/MS/MS for analysis (see the table below for the results).
PK Results for Single Oral Administration (PO) of 10 mg/kg of Compounds to Mice

[3] = tested on: HCT 116 MTAP knockout cells; assay: Human colon cancer HCT116 cell proliferation inhibition test (MTAP knockout cells, CellTiter-Glo, 6 days); assay type: cell-based
Experimental: (§1) • 1. HCT 116 MTAP knockout and MTAP wild-type cells were plated in 96-well flat bottom 5 plates, and cultured overnight with McCoy's 5A medium containing […]+1% penicillin-streptomycin at 37° C. and 5% CO2. • 2. On the next day, the compound was dissolved with DMSO, diluted with DMSO and medium successively and transferred to the cell plate. The final concentration of the compound was 10 μM, the compound was diluted 4 times, with 9 concentration gradients, and DMSO control was added. • 3. Cells that have not been treated with the compound were removed. CellTiter-Glo Luminescent Cell Viability Assay (Promega) was used to detect cell viability, the operation was performed with reference to the package insert of the kit, and then the cell plate was placed on EnVision Multilabel Reader to detect the cold light signal. • 4. Meanwhile, the cell plate treated with the compound was cultured at 37° C. and 5% CO2 for 6 consecutive days. • 5. Then, CellTiter-Glo was also used to detect cell viability. • 6. Finally, the four-parameter dose-response curve module of GraphPad Prism v 9.2.0 software was used to plot the dose-response curve and calculate the IC50 for proliferation inhibition (unit: nM).

[4] = tested on: HCT 116 MTAP wild-type cells; assay: Human colon cancer HCT116 cell proliferation inhibition test (MTAP wild-type cells, CellTiter-Glo, 6 days); assay type: cell-based; settings: HCT-116, 144 h
Experimental: as §1

Structure (SMILES): Cn1ncc(-c2ccc3c(=O)[nH]nc(CN)c3c2)c1-c1c(F)c(Cl)cc(OC2CC2)c1C#N [MRTX-1979, reference compound]
half-life at 1 µM [1]: 0.333 h
AUC(0-t) [2]: 973 ng·h/mL
Cmax [2]: 266 ng/mL
half-life [2]: 1.3 h
IC50 ([3]; Homo sapiens, HCT-116, 144 h): 53 nM
IC50 [4]: 1610 nM

Structure (SMILES): Cn1ncc(-c2cc(C#N)c3c(=O)[nH]nc(CN)c3c2)c1-c1c(F)c(Cl)cc(N2CCCC2)c1C#N [Example 9, 1-(aminomethyl)-7-(5-(3-chloro-6-cyano-2-fluoro-5-(pyrrolidin-1-yl)phenyl)-1-methyl-1H-pyrazol-4-yl)-4-oxo-3,4-dihydrophthalazine-5-carbonitrile]
half-life at 1 µM [1]: 0.633 h
AUC(0-t) [2]: 2230 ng·h/mL
Cmax [2]: 844 ng/mL
half-life [2]: 6.9 h
IC50 ([3]; Homo sapiens, HCT-116, 144 h): 58 nM

Structure (SMILES): COC1CCN(c2cc(OC3CC3)c(C#N)c(-c3c(-c4ccc5c(=O)[nH]nc(CN)c5c4)cnn3C)c2F)C1 (stereo not drawn) [Example 26, 2-(4-(4-(aminomethyl)-1-oxo-1,2-dihydrophthalazin-6-yl)-1-methyl-1H-pyrazol-5-yl)-6-cyclopropoxy-3-fluoro-4-(3-methoxypyrrolidin-1-yl)benzonitrile]
IC50 ([3]; Homo sapiens, HCT-116, 144 h): 34 nM
IC50 [4]: 2490 nM

Structure (SMILES): Cn1ncc(-c2cc(C#N)c3c(=O)[nH]nc(CN)c3c2)c1-c1c(F)cc2ccccc2c1C#N [Example 1, 1-(aminomethyl)-7-(5-(1-cyano-3-fluoronaphthalen-2-yl)-1-methyl-1H-pyrazol-4-yl)-4-oxo-3,4-dihydrophthalazine-5-carbonitrile]
half-life at 1 µM [1]: 3.37 h
AUC(0-t) [2]: 2530 ng·h/mL
Cmax [2]: 1750 ng/mL
half-life [2]: 1.2 h
IC50 [3]: 29 nM
IC50 [4]: 2360 nM

Structure (SMILES): Cn1ncc(-c2cc(C3CC3)c3c(=O)[nH]nc(CN)c3c2)c1-c1c(F)c(Cl)cc(OC2CC2)c1C#N [Example 8, 2-(4-(4-(aminomethyl)-8-cyclopropyl-1-oxo-1,2-dihydrophthalazin-6-yl)-1-methyl-1H-pyrazol-5-yl)-4-chloro-6-cyclopropoxy-3-fluorobenzonitrile]
half-life at 1 µM [1]: 0.867 h
AUC(0-t) [2]: 2710 ng·h/mL
Cmax [2]: 576 ng/mL
half-life [2]: 3.2 h
IC50 ([3]; Homo sapiens, HCT-116, 144 h): 18 nM

Structure (SMILES): Cn1ncc(-c2ccc3c(=O)[nH]nc(CN)c3c2)c1-c1c(F)c(N2CCCC2)cc(OC2CC2)c1C#N [Example 16, 2-(4-(4-(aminomethyl)-1-oxo-1,2-dihydrophthalazin-6-yl)-1-methyl-1H-pyrazol-5-yl)-6-cyclopropoxy-3-fluoro-4-(pyrrolidin-1-yl)benzonitrile]
IC50 ([3]; Homo sapiens, HCT-116, 144 h): 21 nM
IC50 [4]: 2540 nM

Structure (SMILES): Cn1ncc(-c2cc(C#N)c3c(=O)[nH]nc(CN)c3c2)c1-c1c(F)c(Cl)cc(OC2CC2)c1C#N [Example 6, 1-(aminomethyl)-7-(5-(3-chloro-6-cyano-5-cyclopropoxy-2-fluorophenyl)-1-methyl-1H-pyrazol-4-yl)-4-oxo-3,4-dihydrophthalazine-5-carbonitrile]
half-life at 1 µM [1]: 2.05 h
AUC(0-t) [2]: 2900 ng·h/mL
Cmax [2]: 973 ng/mL
half-life [2]: 5.1 h
IC50 ([3]; Homo sapiens, HCT-116, 144 h): 70 nM

Structure (SMILES): Cn1ncc(-c2cc(C3CC3)c3c(=O)[nH]nc(CN)c3c2)c1-c1c(F)cc2ccccc2c1C#N [Example 3, 2-(4-(4-(aminomethyl)-8-cyclopropyl-1-oxo-1,2-dihydrophthalazin-6-yl)-1-methyl-1H-pyrazol-5-yl)-3-fluoro-1-naphthalenenitrile]
IC50 ([3]; Homo sapiens, HCT-116, 144 h): 29 nM
IC50 [4]: 1050 nM

Structure (SMILES): C#Cc1cc(-c2cnn(C)c2-c2c(F)cc3ccccc3c2C#N)cc2c(CN)n[nH]c(=O)c12 [Example 2, 2-(4-(4-(aminomethyl)-8-ethynyl-1-oxo-1,2-dihydrophthalazin-6-yl)-1-methyl-1H-pyrazol-5-yl)-3-fluoro-1-naphthalenenitrile]
half-life at 1 µM [1]: 0.717 h
AUC(0-t) [2]: 1440 ng·h/mL
Cmax [2]: 378 ng/mL
half-life [2]: 4 h
IC50 ([3]; Homo sapiens, HCT-116, 144 h): 9 nM

Structure (SMILES): COC1CN(c2cc(OC3CC3)c(C#N)c(-c3c(-c4ccc5c(=O)[nH]nc(CN)c5c4)cnn3C)c2F)C1 [Example 23, 2-(4-(4-(aminomethyl)-1-oxo-1,2-dihydrophthalazin-6-yl)-1-methyl-1H-pyrazol-5-yl)-6-cyclopropoxy-3-fluoro-4-(3-methoxyazetidin-1-yl)benzonitrile]
IC50 ([3]; Homo sapiens, HCT-116, 144 h): 120 nM
IC50 [4]: 3660 nM

Structure (SMILES): Cn1ncc(-c2cc(-c3ccccc3)c3c(=O)[nH]nc(CN)c3c2)c1-c1c(F)c(Cl)cc(OC2CC2)c1C#N [Example 13, 2-(4-(4-(aminomethyl)-1-oxo-8-phenyl-1,2-dihydrophthalazin-6-yl)-1-methyl-1H-pyrazol-5-yl)-4-chloro-6-cyclopropoxy-3-fluorobenzonitrile]
IC50 ([3]; Homo sapiens, HCT-116, 144 h): 122 nM

More lines, now with the values ahead:

IC50 ([3]; Homo sapiens, HCT-116, 144 h): 123 nM
IC50 [4]: 5600 nM
Structure (SMILES): Cn1ncc(-c2ccc3c(=O)[nH]nc(CN)c3c2)c1-c1c(F)c(Cl)cc(N2CC(C)(F)C2)c1C#N [Example 18, 2-(4-(4-(aminomethyl)-1-oxo-1,2-dihydrophthalazin-6-yl)-1-methyl-1H-pyrazol-5-yl)-4-chloro-3-fluoro-6-(3-fluoro-3-methylazetidin-1-yl)benzonitrile]

IC50 ([3]; Homo sapiens, HCT-116, 144 h): 20 nM
IC50 [4]: 1150 nM
Structure (SMILES): Cn1ncc(-c2ccc3c(=O)[nH]nc(CN)c3c2)c1-c1c(F)c(Cl)cc(N2CC3(C2)CC3(F)F)c1C#N [Example 29, 2-(4-(4-(aminomethyl)-1-oxo-1,2-dihydrophthalazin-6-yl)-1-methyl-1H-pyrazol-5-yl)-4-chloro-6-(1,1-difluoro-5-azaspiro[2.3]hexan-5-yl)-3-fluorobenzonitrile]

IC50 ([3]; Homo sapiens, HCT-116, 144 h): 14 nM
IC50 [4]: 2360 nM
Structure (SMILES): Cn1ncc(-c2ccc3c(=O)[nH]nc(CN)c3c2)c1-c1c(F)c(Cl)cc(N2CC(F)(F)C2)c1C#N [Example 14, 2-(4-(4-(aminomethyl)-1-oxo-1,2-dihydrophthalazin-6-yl)-1-methyl-1H-pyrazol-5-yl)-4-chloro-6-(3,3-difluoroazetidin-1-yl)-3-fluorobenzonitrile]

IC50 ([3]; Homo sapiens, HCT-116, 144 h): 80 nM
IC50 [4]: 3260 nM
Structure (SMILES): Cn1ncc(-c2ccc3c(=O)[nH]nc(CN)c3c2)c1-c1c(F)c(Cl)cc(N2CCC(F)(F)C2)c1C#N [Example 19, 2-(4-(4-(aminomethyl)-1-oxo-1,2-dihydrophthalazin-6-yl)-1-methyl-1H-pyrazol-5-yl)-4-chloro-6-(3,3-difluoropyrrolidin-1-yl)-3-fluorobenzonitrile]

IC50 ([3]; Homo sapiens, HCT-116, 144 h): 44 nM
IC50 [4]: 2660 nM
Structure (SMILES): Cn1ncc(-c2ccc3c(=O)[nH]nc(CN)c3c2)c1-c1c(F)c(Cl)cc(N2CC(C(F)F)C2)c1C#N [Example 30, 2-(4-(4-(aminomethyl)-1-oxo-1,2-dihydrophthalazin-6-yl)-1-methyl-1H-pyrazol-5-yl)-4-chloro-6-(3-(difluoromethyl)azetidin-1-yl)-3-fluorobenzonitrile]
